Measurements published in PubChem BioAssay AID1963980 (Molecular Pharmacology Branch, DTP, NCI, 2024).
Each block holds one molecule with its values, some of them ahead of it.

System: 475296-252-R-J1-PDC spheroid viability
Assay: Anticancer human tumor 475296-252-R-J1-PDC patient-derived rectal carcinoma cell line growth inhibition [PI3K]
Details: spheroids with HUVEC and MSC; for IC50: curve of first compound; for viability, T/C: stronger effect = lower value
Summary of the method: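 Complex 3D spheroids (cancer cells + endothelial HUVEC + mesenchymal stem cells); drug pairs of targeted agent x inavolisib/alpelisib/duvelisib/copanlisib; half-log series from ~Cmax, max 10 microM if Cmax unknown; endpoint viability.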

[1] = second compound 0.0316 µM, first compound 0.0316 µM
[2] = second compound 0.0316 µM, first compound 0.1 µM
[3] = second compound 0.0316 µM, first compound 0.316 µM
[4] = second compound 0.0316 µM, first compound 1 µM
[5] = second compound 0.1 µM, first compound 0.0316 µM
[6] = second compound 0.1 µM, first compound 0.1 µM
[7] = second compound 0.1 µM, first compound 0.316 µM
[8] = second compound 0.1 µM, first compound 1 µM
[9] = second compound 0.316 µM, first compound 0.0316 µM
[10] = second compound 0.316 µM, first compound 0.1 µM
[11] = second compound 0.316 µM, first compound 0.316 µM
[12] = second compound 0.316 µM, first compound 1 µM
[13] = second compound 1 µM, first compound 0.0316 µM
[14] = second compound 1 µM, first compound 0.1 µM
[15] = second compound 1 µM, first compound 0.316 µM
[16] = second compound 1 µM, first compound 1 µM
[17] = second compound 3.16 µM, first compound 0.0316 µM
[18] = second compound 3.16 µM, first compound 0.1 µM
[19] = second compound 3.16 µM, first compound 0.316 µM
[20] = second compound 3.16 µM, first compound 1 µM
[21] = second compound 10 µM, first compound 0.0316 µM
[22] = second compound 10 µM, first compound 0.1 µM
[23] = second compound 10 µM, first compound 0.316 µM
[24] = second compound 10 µM, first compound 1 µM
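Further: spheroids exposed to agents for seven days before readout.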

IC50 (second compound 0.0316 µM): > 10 µM
IC50 (second compound 0.1 µM): > 10 µM
IC50 (second compound 0.316 µM): > 10 µM
IC50 (second compound 1 µM): > 10 µM
IC50 (second compound 3.16 µM): > 10 µM
IC50 (second compound 10 µM): > 10 µM
Structure (SMILES): CC(C)NCC(C(=O)N1CCN(c2ncnc3c2C(C)CC3O)CC1)c1ccc(Cl)cc1 (centres undefined) + CC(Nc1ncnc2nc[nH]c12)c1cc2cccc(Cl)c2c(=O)n1-c1ccccc1
viability, T/C [1]: 89.7%
viability, T/C [2]: 104%
viability, T/C [3]: 80.3%
viability, T/C [4]: 77.3%
viability, T/C (second compound 0.0316 µM, first compound 3.16 µM): 56.2%
viability, T/C (second compound 0.0316 µM, first compound 10 µM): 65.5%
viability, T/C [5]: 101%
viability, T/C [6]: 93.2%
viability, T/C [7]: 85.2%
viability, T/C [8]: 73.3%
viability, T/C (second compound 0.1 µM, first compound 3.16 µM): 68.8%
viability, T/C (second compound 0.1 µM, first compound 10 µM): 63.2%
viability, T/C [9]: 117%
viability, T/C [10]: 96.4%
viability, T/C [11]: 89.1%
viability, T/C [12]: 76%
viability, T/C (second compound 0.316 µM, first compound 3.16 µM): 59.9%
viability, T/C (second compound 0.316 µM, first compound 10 µM): 66.3%
viability, T/C [13]: 100%
viability, T/C [14]: 103%
viability, T/C [15]: 76%
viability, T/C [16]: 61.8%
viability, T/C (second compound 1 µM, first compound 3.16 µM): 54.4%
viability, T/C (second compound 1 µM, first compound 10 µM): 65.5%
viability, T/C [17]: 93.1%
viability, T/C [18]: 85.5%
viability, T/C [19]: 82.5%
viability, T/C [20]: 76.1%
viability, T/C (second compound 3.16 µM, first compound 3.16 µM): 67.9%
viability, T/C (second compound 3.16 µM, first compound 10 µM): 50.7%
viability, T/C [21]: 98%
viability, T/C [22]: 84.1%
viability, T/C [23]: 94.7%
viability, T/C [24]: 67.1%
viability, T/C (second compound 10 µM, first compound 3.16 µM): 59.6%
viability, T/C (second compound 10 µM, first compound 10 µM): 56%

IC50 (second compound 0.0316 µM): > 1 µM
IC50 (second compound 0.1 µM): > 1 µM
IC50 (second compound 0.316 µM): > 1 µM
IC50 (second compound 1 µM): > 1 µM
IC50 (second compound 3.16 µM): > 1 µM
IC50 (second compound 10 µM): > 1 µM
Structure (SMILES): CCN1CCN(Cc2ccc(Nc3ncc(F)c(-c4cc(F)c5nc(C)n(C(C)C)c5c4)n3)nc2)CC1 + CC(Nc1ncnc2nc[nH]c12)c1cc2cccc(Cl)c2c(=O)n1-c1ccccc1
viability, T/C (second compound 0.0316 µM, first compound 0.00316 µM): 87%
viability, T/C (second compound 0.0316 µM, first compound 0.01 µM): 101%
viability, T/C [1]: 99.6%
viability, T/C [2]: 86.1%
viability, T/C [3]: 104%
viability, T/C [4]: 92%
viability, T/C (second compound 0.1 µM, first compound 0.00316 µM): 87.8%
viability, T/C (second compound 0.1 µM, first compound 0.01 µM): 90.9%
viability, T/C [5]: 103%
viability, T/C [6]: 102%
viability, T/C [7]: 105%
viability, T/C [8]: 89.1%
viability, T/C (second compound 0.316 µM, first compound 0.00316 µM): 95.1%
viability, T/C (second compound 0.316 µM, first compound 0.01 µM): 102%
viability, T/C [9]: 98.3%
viability, T/C [10]: 101%
viability, T/C [11]: 89.4%
viability, T/C [12]: 81.2%
viability, T/C (second compound 1 µM, first compound 0.00316 µM): 102%
viability, T/C (second compound 1 µM, first compound 0.01 µM): 92.3%
viability, T/C [13]: 93.8%
viability, T/C [14]: 98.5%
viability, T/C [15]: 94.6%
viability, T/C [16]: 75.1%
viability, T/C (second compound 3.16 µM, first compound 0.00316 µM): 87.2%
viability, T/C (second compound 3.16 µM, first compound 0.01 µM): 99.3%
viability, T/C [17]: 85.1%
viability, T/C [18]: 102%
viability, T/C [19]: 92.1%
viability, T/C [20]: 79.5%
viability, T/C (second compound 10 µM, first compound 0.00316 µM): 95.5%
viability, T/C (second compound 10 µM, first compound 0.01 µM): 82.4%
viability, T/C [21]: 87.4%
viability, T/C [22]: 101%
viability, T/C [23]: 96.9%
viability, T/C [24]: 70.5%
